Like-named read-outs stand apart in the source and are kept apart here.

One data set deals with NL4-3P236L. The experiment in a line: Anti-HIV cytoprotection assay, drug resistant NL4-3 P236L. The note with it: HIV-1 strain NL4-3P236L; for EC50: CEM-SS cells. Format: cell-based. The procedure:
(§1) Cells were prepared as described above. Virus Preparation—The wild type NL4-3 and drug resistant A17 viruses were obtained from the NIH AIDS Research and Reference Reagent Program and stock virus pools were produced in CEM-SS cells. Amino acid substitutes of L100I, Y181C and P23L were introduced by site-directed mutagenesis into pN L4-3 and stock virus pools were produced in CEM-SS cells. A pretitered aliquot of virus was removed from the freezer (−80° C.) and allowed to thaw slowly to room temperature in a biological safety cabinet. Virus was re-suspended and diluted into tissue culture medium such that the amount of virus added to each well in a volume of 50 μL was the amount determined to yield 85 to 95% cell killing at 6 days post-infection.
(§2) Plate Format—Each plate contains cell control wells (cells only), virus control wells (cells plus virus), drug toxicity wells (cells plus drug only), drug colorimetric control wells (drug only) as well as experimental wells (drug plus cells plus virus). Samples were tested in triplicate with eleven half-log dilutions per compound. Efficacy and Toxicity XTT—Following incubation at 37° C. in a 5% CO2 incubator, the test plates were stained with the tetrazolium dye XTT (2,3-bis(2-methoxy-4-nitro-5-sulfophenyl)-5-[(phenylamino)carbonyl]-2H-tetrazolium hydroxide). XTT-tetrazolium was metabolized by the mitochondrial enzymes of metabolically active cells to a soluble formazan product, allowing rapid quantitative analysis of the inhibition of HIV induced cell killing by anti-HIV test substances. XTT solution was prepared daily as a stock of 1 mg/mL in RPMI1640. Phenazine methosulfate (PMS) solution was prepared at 0.15 mg/mL in PBS and stored in the dark at −20° C. XTTIPMS stock was prepared immediately before use by adding 40 μL of PMS per ml of XTT solution. Fifty microliters of XTT/PMS was added to each well of the plate and the plate was re-incubated for 4 hours at 37° C. Plates were sealed with adhesive plate sealers and shaken gently or inverted several times to mix the soluble formazan product and the plate was read spectrophotometrically at 450/650 nm with a Molecular Devices Vmax plate reader.
(§3) Data Analysis—Raw data was collected from the Softmax Pro 4.6 software and imported into a Excel XLFit4 spreadsheet for analysis by four parameter curve fit calculations. Both antiviral activity and toxicity are calculated.

A further data set has as its system A17K103N/Y181C. Nature of the data set: Anti-HIV cytoprotection assay, drug resistant A17. Format: cell-based. The conditions noted are these: HIV-1 strain A17K103N/Y181C, CEM-SS cells. The procedure: Cells were prepared as described above. Virus Preparation—The wild type NL4-3 and drug resistant A17 viruses were obtained from the NIH AIDS Research and Reference Reagent Program and stock virus pools were produced in CEM-SS cells. Amino acid substitutes of L100I, Y181C and P23L were introduced by site-directed mutagenesis into pN L4-3 and stock virus pools were produced in CEM-SS cells. A pretitered aliquot of virus was removed from the freezer (−80° C.) and allowed to thaw slowly to room temperature in a biological safety cabinet.
as §2, §3

Another data set relates to NL4-3Y181C. Nature of the data set: Anti-HIV cytoprotection assay, drug resistant NL4-3 Y181C. The note with it: HIV-1 strain NL4-3Y181C; for EC50: CEM-SS cells. The class given is cell-based. As for the experimental part: as §1, §2, §3
A further data set deals with NL4-3L100I. Nature of the data set: Anti-HIV cytoprotection assay, drug resistant NL4-3 L100I. The class given is cell-based. The conditions noted are these: HIV-1 strain NL4-3L100I; for EC50: CEM-SS cells. The procedure: as §1, §2, §3
The nature of data set [1]: Toxicity XTT in CEM-SS cells (drug resistant strain assay). The note with it: human, CEM-SS cells, read-out: TC50 (the source's name). The class given is cell-based. As for the experimental part:
as §1, §2, §3
Background: Tetrazolium assays rely on reduction of a dye to a coloured formazan, in cell work by metabolically active cells.

Data set [2] has as its system CEM-SS cells. Nature of the data set: Toxicity XTT in CEM-SS cells (cytoprotection assay). The class given is cell-based. The conditions noted are these: XTT; read-out: CEM-SS TC50. The method, boiled down:
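CEM-SS cells in exponential growth (>95% viable) were plated with compound alone, as eleven half-log dilutions in triplicate, at 37 °C and 5% CO2. Viability was measured by XTT/PMS metabolism over 4 h, read at 450/650 nm. Toxicity was derived by four-parameter curve fitting.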

Another data set has as its system Caco-2 monolayers. The experiment in a line: in vitro. The note with it: for Recovery (%) A→B / Recovery (%) B→A / Average Papp, A→B / Average Papp, B→A: 2 hours; for Average Papp, A→B / Average Papp, B→A: pH 7.4. Format: in vitro ADME. Put shortly: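 Permeability across Caco-2 monolayers in 12-well Transwell inserts (1.13 cm² area), run in duplicate. Calculation uses receiver and donor volumes, nominal dosing concentration, final receiver and donor concentrations, and the mean of nominal and measured 120 min donor concentrations.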

Data set [3] relates to CEM-SS cells. Nature of the data set: Toxicity XTT in CEM-SS cells (drug resistant strain assay). Format: cell-based. The conditions noted are these: read-out: TC50 (the source's name). As for the experimental part:
as §1, §2, §3

The mark [4] stands for this setting: Human immunodeficiency virus 1, CEM-SS.
Where [5] appears, read: run with HIV-1 strain A17K103N/Y181C.
Where [6] appears, read: run with HIV-1 strain NL4-3L100I.
[7] abbreviates: run with HIV-1 strain NL4-3P236L.
[8] abbreviates: run with HIV-1 strain NL4-3Y181C.

As a reminder, the EC50 is the concentration at which the effect is half-maximal. Regarding `COCCNc1ccc2[nH]c(C(=O)N3CCN(c4ncccc4NC(C)C)CC3)cc2c1` [5-mPEG1-NH-Delavirdine, 5-mPEG-NH-Delavirdine], the EC50 in the data set with NL4-3P236L (setting [4]) was over 1000 nM; with A17K103N/Y181C (setting [4]) it was over 1000 nM; in the data set with NL4-3Y181C (setting [4]), 820 nM; with NL4-3L100I (setting [4]), 560 nM. Further, the TI in the data set on NL4-3Y181C is over 1.2; in the data set on NL4-3L100I, over 1.8. For the same compound, the CC50 in data set [1] (setting [5]), in data set [1] (run with HIV-1 strain NL4-3), in data set [1] (setting [6]), in data set [1] (setting [7]) and in data set [1] (setting [8]) was over 1000 nM throughout.

On to `COCCOCCOCCOCCOc1ccc2[nH]c(C(=O)N3CCN(c4ncccc4NC(C)C)CC3)cc2c1` [mPEG4-O-Delavirdine, 5-O-mPEG4-Delavirdine], for which the EC50 with NL4-3P236L (setting [4]) was over 5000 nM; in the data set with A17K103N/Y181C (setting [4]), over 5000 nM; in the data set on NL4-3Y181C (setting [4]), over 5000 nM; in the data set on NL4-3L100I (setting [4]), 950 nM. In the data set with NL4-3L100I, this compound displayed a TI of over 5.3. In addition, the CC50 in data set [1] (setting [5]), in data set [1] (run with HIV-1 strain NL4-3), in data set [1] (setting [6]), in data set [1] (setting [7]) and in data set [1] (setting [8]) was over 5000 nM each time.

For the compound `COCCOCCOCCOc1ccc2[nH]c(C(=O)N3CCN(c4ncccc4NC(C)C)CC3)cc2c1` [mPEG3-O-Delavirdine, 5-O-mPEG3-Delavirdine], the concentration for a half-maximal effect (EC50) with NL4-3P236L (setting [4]) is over 5000 nM; in the data set on A17K103N/Y181C (setting [4]), over 5000 nM; in the data set on NL4-3Y181C (setting [4]) it was over 5000 nM; in the data set with NL4-3L100I (setting [4]) it was 30 nM. In addition, the TI in the data set with NL4-3L100I was over 167.0. Moreover, the CC50 in data set [1] (setting [5]), in data set [1] (run with HIV-1 strain NL4-3), in data set [1] (setting [6]), in data set [1] (setting [7]) and in data set [1] (setting [8]) was over 5000 nM throughout.

Take `COCCOCCNc1ccc2[nH]c(C(=O)N3CCN(c4ncccc4NC(C)C)CC3)cc2c1` [5-mPEG2-NH-Delavirdine]: the results for the TI in the data set with NL4-3P236L and in the data set on NL4-3L100I were over 4.4 and over 1.4, respectively. The EC50 was 230 nM in the data set with NL4-3P236L (setting [4]), over 1000 nM with A17K103N/Y181C (setting [4]), over 1000 nM in the data set on NL4-3Y181C (setting [4]) and 710 nM with NL4-3L100I (setting [4]). Besides, the CC50 in data set [1] (setting [5]), in data set [1] (run with HIV-1 strain NL4-3), in data set [1] (setting [6]), in data set [1] (setting [7]) and in data set [1] (setting [8]) was over 1000 nM each time.

Take “5-O-mPEG9-Delavirdine [mPEG9-O-Delavirdine]”: the CC50 in the data set with CEM-SS cells [2] is 40700 nM; in the data set with CEM-SS cells [3] (setting [5]), over 5000 nM; with CEM-SS cells [3] (run with HIV-1 strain NL4-3) it was over 5000 nM; in the data set with CEM-SS cells [3] (setting [6]), over 5000 nM; with CEM-SS cells [3] (setting [7]) it was over 5000 nM; in the data set with CEM-SS cells [3] (setting [8]) it was over 5000 nM. For the same compound, the EC50 in the data set on NL4-3P236L (read-out: EC50) was over 5000 nM; in the data set with A17K103N/Y181C (read-out: EC50), over 5000 nM; with NL4-3Y181C (read-out: EC50), over 5000 nM; with NL4-3L100I (read-out: EC50), 940 nM. For the same compound, the “Efflux Ratio (B→A/A→B)” value in the data set on Caco-2 monolayers (Test 1) worked out at 12; in the data set with Caco-2 monolayers (Test 2), 7.1. In addition, the “Recovery (%) A→B” value in the data set on Caco-2 monolayers (Test 1, 10 μM) is recorded as 66%; with Caco-2 monolayers (Test 2, 10 μM), 93%. Further, the “Recovery (%) B→A” value in the data set on Caco-2 monolayers (Test 1, 10 μM) is 72%; with Caco-2 monolayers (Test 2, 10 μM), 94%. Also, the “Average Papp, A→B” value in the data set on Caco-2 monolayers (Test 1, 10 μM) turned out to be 2.22 ×10⁻⁶ cm/s; with Caco-2 monolayers (Test 2, 10 μM), 5.27 ×10⁻⁶ cm/s. Moreover, the “Average Papp, B→A” value worked out at 27.7 ×10⁻⁶ cm/s in the data set on Caco-2 monolayers (Test 1, 10 μM) and 37.3 ×10⁻⁶ cm/s in the data set with Caco-2 monolayers (Test 2, 10 μM). The TI with NL4-3L100I was over 5.3.

For the origin of these results see patent US9421204B2, “Oligomer modified diaromatic substituted compounds” (priority 2010, dated 2016).
